Structures are written as SMILES.

Chain of recombinant human angiotensin-II receptor subtype 2 (hAT2R) (P50052 whole entry): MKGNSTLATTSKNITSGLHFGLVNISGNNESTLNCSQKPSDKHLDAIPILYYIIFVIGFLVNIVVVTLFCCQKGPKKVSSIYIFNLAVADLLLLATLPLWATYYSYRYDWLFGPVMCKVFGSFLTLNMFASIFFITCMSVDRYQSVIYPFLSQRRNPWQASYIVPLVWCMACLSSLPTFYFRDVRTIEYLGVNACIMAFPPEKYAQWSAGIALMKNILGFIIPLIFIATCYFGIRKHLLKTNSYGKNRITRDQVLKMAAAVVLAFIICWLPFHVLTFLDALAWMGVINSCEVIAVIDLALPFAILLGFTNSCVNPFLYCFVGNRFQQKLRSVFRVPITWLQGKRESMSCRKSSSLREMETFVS

This assay addresses recombinant human angiotensin-II receptor subtype 2 (hAT2R) (Homo sapiens (Human), UniProt P50052). In words: Competitive radioligand binding assay (SPA), hAT2R HEK293 membranes. The conditions noted are these: [125I]-Tyr4-Angiotensin-II, read-out: AT2R Ki. The method, then:
Compound Solubilization Test and reference compounds were received as dry powder reagents, weighed, and solubilized in 100% DMSO to generate a working stock concentration of 10 mM. Membrane Preparation Protocol (hAT2R HEK293 and rAT2R HEK293) hAT2R membranes were prepared from human embryonic kidney (HEK293) cells which were stably transfected with recombinant human angiotensin-II receptor subtype 2 (hAT2R). Cells from the stable cell lines were expanded in tissue culture flasks to generate a large population of cells; cell pellet (>1 gm), and these cell pellets were stored frozen prior to initiating this membrane isolation procedure for each receptor isoform. Frozen cell pellets were thawed in ice-cold homogenization/resuspension buffer (50 mM Tris-HCl, pH 7.5) containing one Complete© protease inhibitor tablet with EDTA (Roche Diagnostics) per 50 mL buffer, and cell pellet was resuspended at a ratio of 10 mL homogenization buffer to gram of starting cell pellet. Cell suspension was homogenized with an overhead motor-driven Teflon-glass homogenizer using 15 to 20 strokes, followed by centrifugation at 1100×g for 10 minutes at 4° C. The supernatant was saved on ice, pellets were homogenized as before, and centrifuged at 1100×g for 10 minutes at 4° C. Both supernatants were combined and subsequently centrifuged at 35,000×g for 60 minutes at 4° C. The final centrifugation pellet (pellet 2) containing the isolated membranes was resuspended in buffer (4 to 5 mL/g of starting cell paste) containing protease inhibitors and quick frozen in liquid nitrogen prior to storage at -80° C. Protein concentration was determined using a BCA kit (ThermoScientific, Inc.) with bovine serum albumin (BSA) as standard. […] The assays were performed with a scintillation proximity assay (SPA) method using polyvinyltoluene (PVT) wheat germ agglutinin-coupled SPA beads (Perkin Elmer Cat. #RPNQ0001). Assay buffer containing BSA (50 mM Tris-HCl, pH 7.5, 150 mM NaCl, 0.1% w/v fatty-acid free BSA) was used for preparing radioligand, membrane and SPA bead reagent dilution to working stock concentrations. Reference control and test compounds were diluted to obtain ten-point concentration response curves using a four-fold serial dilution protocol onto assay plates, dispensed acoustically from DMSO stock using automated ECHO instrument technology (Labcyte, Inc.). Concentration response curves were routinely generated with the highest final assay concentration for the reference angiotensin-II control at 50 nM, and the highest final assay concentration for the test compounds at 50 μM. […] The hAT2R membrane was combined with PVT-WGA SPA beads to obtain a final assay concentration of 0.25 μg/well hAT2R membrane+0.1 mg/well PVT-WGA SPA bead. And the hAT1R membrane PVT-WGA SPA bead final concentrations was 0.5 μg/well hAT1R membrane+0.1 mg/well PVT-WGA SPA bead. […] For all assays, radioligand addition was followed by the addition of membrane-SPA bead mixture, i.e., the hAT2R membrane-SPA bead mixture (30 μL), the rAT2R membrane-SPA bead mixture, or the AT1R membrane-SPA bead mixture (30 μL) into the assay plate. All dispensing steps were added using a Multiflo FX (Biotek, Inc.) bulk dispensing instrument. After reagent addition steps, assay plates were sealed, and plate contents mixed for one minute on a benchtop micro-plate shaker. Following a 10-hour incubation at room temperature to allow for bead settling and radioligand binding, bound radioactivity was quantitated using a Microbeta Trilux scintillation counter (Perkin Elmer) and expressed as counts per minute (CPM). The unlabeled angiotensin-II control was included on each plate as an experimental assay reference. […] Data Analysis Procedures Compounds were tested in a 10-point concentration response curve (CRC) format, with each plate containing the positive control angiotensin-II positive reference compound, and experimental compounds.
Consider `CN(C(=O)N1CCC(CC(=O)N(c2ccccc2)C2CCCOC2)(C(=O)O)CC1)c1ccc(F)cc1` (single isomer, unassigned) [Example 41B, 1-[(4-fluorophenyl)-methyl-carbamoyl]-4-[2-oxo-2-(N-tetrahydropyran-3-ylanilino)ethyl]piperidine-4-carboxylic acid], for which the Ki – broadly, a measure of affinity in units of concentration, obtained from inhibition or displacement – was 14.7 nM. Next, `CC(C1CC1)N(C(=O)CC1(C(=O)O)CCN(C(=O)N(C)c2ccc(F)cc2)CC1)c1ccccc1` (single isomer, unassigned) [Example 43A, 4-[2-[N-(1-cyclopropylethyl)anilino]-2-oxo-ethyl]-1-[(4-fluorophenyl)-methyl-carbamoyl]piperidine-4-carboxylic acid]: 2.19 nM. Turning to `CC(C1CC1)N(C(=O)CC1(C(=O)O)CCN(C(=O)N(C)c2ccc(F)cc2)CC1)c1ccccc1` (single isomer, unassigned) [Example 43B, 4-[2-[N-(1-cyclopropylethyl)anilino]-2-oxo-ethyl]-1-[(4-fluorophenyl)-methyl-carbamoyl]piperidine-4-carboxylic acid], the inhibition constant Ki turned out to be 20.1 nM. As for `CN(C(=O)N1CCC(CC(=O)N(c2ccccc2)C2CCCOC2)(C(=O)O)CC1)c1ccc(C2CC2)cc1` (single isomer, unassigned) [Example 45A, 1-[(4-cyclopropylphenyl)-methyl-carbamoyl]-4-[2-oxo-2-(N-tetrahydropyran-3-ylanilino)ethyl]piperidine-4-carboxylic acid], the Ki was 1.55 nM.

Take `CN(C(=O)N1CCC(CC(=O)N(c2ccccc2)C2CCCOC2)(C(=O)O)CC1)c1ccc(C2CC2)cc1` (single isomer, unassigned) [Example 45B, 1-[(4-cyclopropylphenyl)-methyl-carbamoyl]-4-[2-oxo-2-(N-tetrahydropyran-3-ylanilino)ethyl]piperidine-4-carboxylic acid]: the inhibition constant Ki came to 2.68 nM. As for `O=C(N1CCC(CC(=O)N(c2ccccc2)C2CCCC(F)(F)C2)(C(=O)O)CC1)N1CCc2ccc(F)cc21` (single isomer, unassigned) [Example 72A, 4-[2-(N-(3,3-difluorocyclohexyl)anilino)-2-oxo-ethyl]-1-(6-fluoroindoline-1-carbonyl)piperidine-4-carboxylic acid], the Ki worked out at 8.14 nM. Turning to `O=C(N1CCC(CC(=O)N(c2ccccc2)C2CCCC(F)(F)C2)(C(=O)O)CC1)N1CCc2ccc(F)cc21` (single isomer, unassigned) [Example 72B, 4-[2-(N-(3,3-difluorocyclohexyl)anilino)-2-oxo-ethyl]-1-(6-fluoroindoline-1-carbonyl)piperidine-4-carboxylic acid], the Ki was 0.383 nM. `CC(C)(C)OC(=O)N1CCC(CC(=O)N(c2ccccc2)C2CCCC(F)(F)C2)(C(=O)O)CC1` (single isomer, unassigned) [compound 42]: the Ki was found to be 3.94 nM. For `CCCCCn1c(Br)nnc1N1CCC(CC(=O)N(c2ccccc2)c2ccccc2)(C(=O)O)CC1` [Example 4, 1-(5-bromo-4-pentyl-1,2,4-triazol-3-yl)-4-[2-oxo-2-(N-phenylanilino)ethyl]piperidine-4-carboxylic acid], the Ki is 5.13 nM.

Take `O=C(CC1(C(=O)O)CCN(c2ncncc2C2CC2)CC1)N(c1ccccc1)c1ccccc1` [Example 5, 1-(5-cyclopropylpyrimidin-4-yl)-4-(2-(diphenylamino)-2-oxoethyl)piperidine-4-carboxylic acid]: the Ki came out at 9.15 nM. Regarding `O=C(N1CCC(CC(=O)N(c2ccccc2)C2CCCCC2)(C(=O)O)CC1)N1CCc2ccccc21` [Example 6, 4-[2-(N-cyclohexylanilino)-2-oxo-ethyl]-1-(indoline-1-carbonyl)piperidine-4-carboxylic acid], the inhibition constant (Ki) was 9.08 nM. Regarding `CN(C(=O)N1CCC(CC(=O)N(c2ccccc2)C2CCC(F)(F)CC2)(C(=O)O)CC1)c1ccc(F)cc1` [Example 8, 4-[2-(N-(4,4-difluorocyclohexyl)anilino)-2-oxo-ethyl]-1-[(4-fluorophenyl)-methyl-carbamoyl]piperidine-4-carboxylic acid], the Ki came out at 3.02 nM. Turning to `CN(C(=O)N1CCC(CC(=O)N(c2ccccc2)C2CCCC2)(C(=O)O)CC1)c1ccc(F)cc1` [Example 9, 4-[2-(N-cyclopentylanilino)-2-oxo-ethyl]-1-[(4-fluorophenyl)-methyl-carbamoyl]piperidine-4-carboxylic acid], the Ki worked out at 2.62 nM.

With `CN(C(=O)N1CCC(CC(=O)N(c2ccccc2)C2CCCCC2)(C(=O)O)CC1)c1ccccc1F` [Example 12, 4-[2-(N-cyclohexylanilino)-2-oxo-ethyl]-1-[(2-fluorophenyl)-methyl-carbamoyl]piperidine-4-carboxylic acid], the Ki was determined as 0.521 nM. As to `Cc1ccc(N(C)C(=O)N2CCC(CC(=O)N(c3ccccc3)C3CCCCC3)(C(=O)O)CC2)cc1` [Example 13, 4-[2-(N-cyclohexylanilino)-2-oxo-ethyl]-1-[methyl(p-tolyl)carbamoyl]piperidine-4-carboxylic acid], the inhibition constant Ki turned out to be 1.44 nM.

As for `COc1ccc(N(C)C(=O)N2CCC(CC(=O)N(c3ccccc3)C3CCCCC3)(C(=O)O)CC2)cc1` [Example 14, 4-[2-(N-cyclohexylanilino)-2-oxo-ethyl]-1-[(4-methoxyphenyl)-methyl-carbamoyl]piperidine-4-carboxylic acid], the Ki was determined as 2.58 nM.

On to `CCN(C(=O)N1CCC(CC(=O)N(c2ccccc2)C2CCCCC2)(C(=O)O)CC1)c1ccc(F)cc1` [Example 15, 4-[2-(N-cyclohexylanilino)-2-oxo-ethyl]-1-[ethyl-(4-fluorophenyl)carbamoyl]piperidine-4-carboxylic acid], for which the Ki was 1.69 nM.

For the compound `O=C(CC1(C(=O)O)CCN(C(=O)N(c2ccc(F)cc2)C2CC2)CC1)N(c1ccccc1)C1CCCCC1` [Example 16, 4-[2-(N-cyclohexylanilino)-2-oxo-ethyl]-1-[cyclopropyl-(4-fluorophenyl)carbamoyl]piperidine-4-carboxylic acid], the inhibitory constant (Ki) stood at 1.76 nM. Take `CN(C(=O)N1CCC(CC(=O)N(c2ccccc2)C2CCOCC2)(C(=O)O)CC1)c1ccc(C2CC2)cc1` [Example 26, 1-[(4-cyclopropylphenyl)-methyl-carbamoyl]-4-[2-oxo-2-(N-tetrahydropyran-4-ylanilino)ethyl]piperidine-4-carboxylic acid]: the Ki is 5.39 nM.

As for `N#Cc1ccc2c(c1)N(C(=O)N1CCC(CC(=O)N(c3ccccc3)C3CCCCC3)(C(=O)O)CC1)CC2` [Example 33, 1-(6-cyanoindoline-1-carbonyl)-4-[2-(N-cyclohexylanilino)-2-oxo-ethyl]piperidine-4-carboxylic acid], the Ki turned out to be 1.94 nM.

`Cc1ccccc1N(C(=O)CC1(C(=O)O)CCN(C(=O)N(C)c2ccc(F)cc2)CC1)c1ccccc1` [Example 37, 1-[(4-fluorophenyl)-methyl-carbamoyl]-4-[2-[N-(o-tolyl)anilino]-2-oxo-ethyl]piperidine-4-carboxylic acid]: the Ki came out at 0.987 nM. Next, `CC(C)N(C(=O)N1CCC(CC(=O)N(c2ccccc2)c2ccccc2F)(C(=O)O)CC1)c1ccc(F)cc1` [Example 38, 4-[2-(N-(2-fluorophenyl)anilino)-2-oxo-ethyl]-1-[(4-fluorophenyl)-isopropyl-carbamoyl]piperidine-4-carboxylic acid]: 6.46 nM; `O=C(CC1(C(=O)O)CCN(C(=O)N(c2ccc(F)cc2)C2CC2)CC1)N(c1ccccc1)c1ccccc1` [Example 39, 1-[cyclopropyl-(4-fluorophenyl)carbamoyl]-4-[2-oxo-2-(N-phenylanilino)ethyl]piperidine-4-carboxylic acid]: 2.82 nM.

The values are drawn from US12122750B2, “AT2R antagonists and uses thereof” (Eli Lilly and Company, priority 2022, dated 2024).
